Reference: patent publication US8461328B2, “Tricyclic heterocyclic compounds, compositions and methods of use thereof” (Genentech, Inc., priority 2010, dated 2013)

Tests used:
Assay type in all cases: biochemical
JAK1 = biological target: T1, JAK1 (Homo sapiens, UniProt P23458); experiment: JAK1 inhibition (Table 4); conditions: read-out: JAK1 Ki
T1 construct: made in house; host or cells: SF9 insect cells (baculovirus)

JAK2 = biological target: T2, JAK2 (Homo sapiens, UniProt O60674); experiment: JAK2 inhibition (Table 4); conditions: read-out: JAK2 Ki
T2 construct: made in house; host or cells: SF9 insect cells (baculovirus)

JAK3 = biological target: T3, JAK3 (Homo sapiens, UniProt P52333); experiment: JAK3 inhibition (Table 4); conditions: read-out: JAK3 Ki
T3 construct: made in house; host or cells: SF9 insect cells (baculovirus)

TYK2 = biological target: T4, TYK2 (Homo sapiens, UniProt P29597); experiment: TYK2 inhibition (Table 4)
T4 construct: made in house; host or cells: SF9 insect cells (baculovirus)
T4 sequence (P29597 873-1187): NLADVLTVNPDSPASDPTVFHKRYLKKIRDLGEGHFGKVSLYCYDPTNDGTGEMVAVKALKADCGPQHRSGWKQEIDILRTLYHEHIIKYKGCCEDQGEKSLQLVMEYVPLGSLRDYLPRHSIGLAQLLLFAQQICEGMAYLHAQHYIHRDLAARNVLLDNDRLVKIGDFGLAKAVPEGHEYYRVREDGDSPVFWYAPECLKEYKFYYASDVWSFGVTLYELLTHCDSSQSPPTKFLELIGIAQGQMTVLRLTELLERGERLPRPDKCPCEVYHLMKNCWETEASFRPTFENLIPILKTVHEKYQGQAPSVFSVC

T3 sequence (P52333 783-1124): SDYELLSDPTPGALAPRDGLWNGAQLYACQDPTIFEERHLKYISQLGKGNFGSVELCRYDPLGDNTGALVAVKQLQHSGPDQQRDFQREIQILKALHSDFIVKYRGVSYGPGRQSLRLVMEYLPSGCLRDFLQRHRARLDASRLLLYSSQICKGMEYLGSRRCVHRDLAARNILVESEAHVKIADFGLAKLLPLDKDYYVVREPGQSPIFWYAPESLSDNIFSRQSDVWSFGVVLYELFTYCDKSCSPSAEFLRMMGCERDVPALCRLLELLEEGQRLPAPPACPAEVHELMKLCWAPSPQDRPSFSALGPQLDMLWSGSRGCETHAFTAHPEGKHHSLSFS
T2 sequence (O60674 812-1132): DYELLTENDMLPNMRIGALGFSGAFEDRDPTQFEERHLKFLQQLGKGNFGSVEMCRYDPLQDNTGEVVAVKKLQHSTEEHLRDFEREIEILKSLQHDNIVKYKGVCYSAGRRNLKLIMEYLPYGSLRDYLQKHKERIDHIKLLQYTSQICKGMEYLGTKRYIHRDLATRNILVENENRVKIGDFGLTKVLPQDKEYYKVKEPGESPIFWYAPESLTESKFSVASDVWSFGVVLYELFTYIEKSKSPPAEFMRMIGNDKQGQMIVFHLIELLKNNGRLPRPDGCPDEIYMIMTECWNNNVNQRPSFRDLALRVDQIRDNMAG
T1 sequence (P23458 852-1154): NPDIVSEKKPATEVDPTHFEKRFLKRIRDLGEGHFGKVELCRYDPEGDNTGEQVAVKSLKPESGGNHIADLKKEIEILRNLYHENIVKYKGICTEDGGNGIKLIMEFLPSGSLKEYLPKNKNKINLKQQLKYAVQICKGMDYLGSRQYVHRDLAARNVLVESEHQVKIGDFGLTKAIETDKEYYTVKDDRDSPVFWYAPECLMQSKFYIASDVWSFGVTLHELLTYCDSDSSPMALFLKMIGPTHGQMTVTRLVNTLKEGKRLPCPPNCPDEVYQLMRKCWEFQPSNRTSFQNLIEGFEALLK

SMILES	Ki (JAK1) [nM]	Ki (JAK2) [nM]	Ki (JAK3) [nM]	Ki (TYK2) [nM]
C[C@@H](O)c1nc2cnc3[nH]ccc3c2n1[C@H]1CC[C@H](N2CC[C@@H](C#N)C2)CC1 [Example 610, Trans (R)-1-{4-[2-((R)-1-hydroxy-ethyl)-6H-1,2,3,5,6-tetraaza-as-indacen-1-yl]-cyclohexyl}-pyrrolidine-3-carbonitrile]	7.25	35.5	139	17.7
FC1(F)CN(Cc2ccccc2)CCC1n1cnc2cnc3[nH]ccc3c21 (stereo not shown) [Example 179, 1-(1-Benzyl-3,3-difluoro-piperidin-4-yl)-1,6-dihydro-1,2,3,5,6-tetraaza-as-indacene]	0.58	1.11	13.2	21.6
O=C(N[C@H]1CC[C@H](n2cnc3cnc4[nH]ccc4c32)CC1)C1CC1 [Example 572, trans Cyclopropanecarboxylic acid [4-(6H-1,3,5,6-tetraaza-as-indacen-1-yl)-cyclohexyl]-amide]	11.6	27	201	119
N#CCCN1CCC(n2c(CF)nc3cnc4[nH]ccc4c32)CC1 [Example 530, 3-[4-(2-Fluoromethyl-6H-1,3,5,6-tetraaza-as-indacen-1-yl)-piperidin-1-yl]-propionitrile]	0.66	1.45	3	5.61
O[C@H]1CC[C@@H](n2cnc3cnc4[nH]ccc4c32)C1 [Example 709, (1S,3R)-3-(6H-1,2,3,5,6-Tetraaza-as-indacen-1-yl)-cyclopentanol]	6.03	24	56.3	44.4
Cc1nc2ncccn2c1CN1CCC(n2c([C@@H](C)O)nc3cnc4[nH]ccc4c32)CC1 [Example 901, (R)-1-{1-[1-(2-Methyl-imidazo[1,2-a]pyrimidin-3-ylmethyl)-piperidin-4-yl]-1,6-dihydro-1,3,5,6-tetraaza-as-indacen-2-yl}-ethanol]	25	139	72.5	223
CCc1nc2cnc3[nH]ccc3c2n1C1CCN(C(C)CC#N)CC1 (stereo not shown) [Example 123, 3-[4-(2-Ethyl-6H-1,2,3,5,6-tetraaza-as-indacen-1-yl)-piperidin-1-yl]-butyronitrile]	3.55	7.14	23.6	31
CC(C)(C)OC(=O)NC1CCCC(n2cnc3cnc4[nH]ccc4c32)C1 (single isomer, unassigned) [Example 475, [3-(6H-1,3,5,6-Tetraaza-as-indacen-1-yl)-cyclohexyl]-carbamic acid tert-butyl ester]	32.4	110	21.9	2250
CS(=O)(=O)N1CCC(n2c(-c3cccnc3)nc3cnc4[nH]ccc4c32)CC1 [Example 361, 1-(1-Methanesulfonyl-piperidin-4-yl)-2-pyridin-3-yl-1,6-dihydro-1,3,5,6-tetraaza-as-indacene]	379	248	354	732
CCC(COC)n1c(C)nc2cnc3[nH]ccc3c21 (racemic) [Example 415, 1-(1-Methoxymethyl-propyl)-2-methyl-1,6-dihydro-1,3,5,6-tetraaza-as-indacene]	115	233	109	919
CC(=O)NC1CCCC(n2cnc3cnc4[nH]ccc4c32)C1 (single isomer, unassigned) [Example 479, N-[3-(6H-1,3,5,6-Tetraaza-as-indacen-1-yl)-cyclohexyl]-acetamide]	130	123	121	420
N#CCCN1CCC(n2c(CNS(=O)(=O)C3CCCC3)nc3cnc4[nH]ccc4c32)CC1 [Example 499, Cyclopentanesulfonic acid {1-[1-(2-cyano-ethyl)-piperidin-4-yl]-1,6-dihydro-1,3,5,6-tetraaza-as-indacen-2-ylmethyl}-amide]	13.8	85.6	103	417
O[C@@H]1CC[C@H](n2cnc3cnc4[nH]ccc4c32)C1 [Example 710, (1R,3S)-3-(6H-1,2,3,5,6-Tetraaza-as-indacen-1-yl)-cyclopentanol]	6.85	34.3	45	50.6
COC(=O)N(C)[C@H]1CC[C@H](n2c(CO)nc3cnc4[nH]ccc4c32)CC1 [Example 606, Trans[4-(2-hydroxymethyl-6H-1,2,3,5,6-tetraaza-as-indacen-1-yl)-cyclohexyl]-methyl-carbamic acid methyl ester]	28.8	65.2	455	112
CCCC1(n2c(C)nc3cnc4[nH]ccc4c32)CC1 [Example 423, 2-Methyl-1-(1-propyl-cyclopropyl)-1,6-dihydro-1,3,5,6-tetraaza-as-indacene]	9.88	14.1	9.67	112
N#CCCN1CCC(n2c(C3CC3)nc3cnc4[nH]ccc4c32)CC1 [Example 337, 3-[4-(2-Cyclopropyl-6H-1,3,5,6-tetraaza-as-indacen-1-yl)-piperidin-1-yl]-propionitrile]	2.9	5.31	10.7	33.7
COCCN1CC[C@@H](n2c([C@@H](C)O)nc3cnc4[nH]ccc4c32)C(F)(F)C1 [Example 1014, (R)-1-{1-[(R)-3,3-Difluoro-1-(2-methoxy-ethyl)-piperidin-4-yl]-1,6-dihydro-1,3,5,6-tetraaza-as-indacen-2-yl}-ethanol]	2.53	18.6	4.65	45.5
O=C(Cc1nc2cnc3[nH]ccc3c2n1C1CCCOC1)N1CCSCC1 (racemic) [Example 985, 2-[1-(Tetrahydro-pyran-3-yl)-1,6-dihydro-1,3,5,6-tetraaza-as-indacen-2-yl]-1-thiomorpholin-4-yl-ethanone]	19.6	366	146	175
C[C@@H](O)c1nc2cnc3[nH]ccc3c2n1[C@@H]1CCCN(C(=O)CC#N)C1 [Example 661, 3-{(R)-3-[2-((R)-1-Hydroxy-ethyl)-6H-1,2,3,5,6-tetraaza-as-indacen-1-yl]-piperidin-1-yl}-3-oxo-propionitrile]	3.98	66.3	55.4	46.2
O=C(N[C@H]1CC[C@H](n2c(CO)nc3cnc4[nH]ccc4c32)CC1)OCC1CC1 [Example 601, Trans[4-(2-hydroxymethyl-6H-1,2,3,5,6-tetraaza-as-indacen-1-yl)-cyclohexyl]-carbamic acid cyclopropylmethyl ester]	3.89	57.1	111	149
O=C1CC(n2cnc3cnc4[nH]ccc4c32)CCN1Cc1ccccc1 (racemic) [Example 129, 1-Benzyl-4-(6H-1,2,3,5,6-tetraaza-as-indacen-1-yl)-piperidin-2-one]	43.8	57.2	535	312
NC1CCCC(n2cnc3cnc4[nH]ccc4c32)C1 (single isomer, unassigned) [Example 365, 3-(6H-1,3,5,6-Tetraaza-as-indacen-1-yl)-cyclohexylamine]	24.1	113	331	186
